Assay results as given in patent publication US10155990B2, “Method for predicting therapeutic efficacy of PI3K/AKT/mTOR inhibitor on basis of PHLDA1 or PIK3C2B expression” (Taiho Pharmaceutical Co., Ltd., priority 2013, dated 2018).

How the values were obtained:
Format in all cases: cell-based
[1] = test system: human breast cancer cell line HCC1187; experiment: Cytotoxicity after PIK3C2B gene knockdown, HCC1187; conditions: relative cell count after three days, FIG. 3
[2] = test system: 37 cell lines from human breast cancer; experiment: Cytotoxicity assay (CellTiter-Glo, GI50) in 37 human breast cancer cell lines, related to PHLDA1/PIK3C2B expression, PIK3CA mutation, PTEN deletion
Protocol: A cytotoxicity assay was conducted as described below using 37 cell lines from human breast cancer (AU565, BT20, BT474, BT549, CAMA-1, DU4475, HCC1187, HCC1419, HCC1428, HCC1500, HCC1569, HCC1599, HCC1806, HCC1937, HCC1954, HCC202, HCC2218, HCC38, HCC70, MDA-MB-157, MDA-MB-175, MDA-MB-231, MDA-MB-361, MDA-MB-415, MDA-MB-436, MDA-MB-453, MDA-MB-468, UACC-812, and UACC-893 (all obtained from American Type Culture Collection (ATCC); MCF-7, SK-BR-3, T47D, and ZR-75-1 (all obtained from Sumitomo Dainippon Pharma Co., Ltd.); KPL-1, KPL-3C, and KPL-4 (provided by Dr. Kurebayashi at Kawasaki Medical School)). Each cell line was seeded into a 96-well flat-bottom microplate in an amount of 150 μL, and cultured in an incubator containing 5% carbon dioxide gas at 37° C. for one day. PI3K/AKT/mTOR inhibitors (AKT inhibitor: Compound-I, MK-2206, PI3K-mTOR dual inhibitor: BEZ235, PI3K inhibitor: GDC-0941, mTOR inhibitor: sirolimus) diluted stepwise with dimethylsulfoxide, paclitaxel diluted stepwise with dimethylsulfoxide, and dimethylsulfoxide were individually added to respective media for the cell lines. 50 μL of each of the media was added to the wells of the aforementioned 96-well flat-bottom microplate so that the final concentration of each drug became 10,000, 3,000, 1,000, 300, 100, 30, 3, and 1 nM. A separately prepared 96-well flat-bottom microplate in which each cell line was cultured for one day was allowed to stand at room temperature for 30 minutes, and 50 μL of the supernatant was removed from each well to leave 100 μL of the cell culture solution. […] The microplate was allowed to stand in a dark place for 10 minutes, and then the luminescence intensity of live cells of each well to which the drug were added was measured using a microplate reader (PerkinElmer, ARVOsx). […] The microplate was allowed to stand in a dark place for 10 minutes, and then the luminescence intensity of live cells of each well was measured using a microplate reader. […]
Subsequently, the expression level of PHLDA1 and PIK3C2B in the 37 cell lines from human breast cancer was measured. […]

[3] = test system: human ovarian cancer cell line OVCAR-3; experiment: Cytotoxicity after PIK3C2B gene knockdown, OVCAR-3; conditions: relative cell count after three days, FIG. 3
[4] = test system: panel of 240 cell lines composed of various cancers; experiment: GI50 versus PHLDA1/PIK3C2B expression in a panel of 240 cell lines (OncoPanel, Ricerca Biosciences); conditions: panel of 240 cell lines of various cancers
Source text: It was also examined whether the expression level of PHLDA1 or PIK3C2B has a correlation with the sensitivity to PI3K/AKT/mTOR inhibitors in a panel of 240 cell lines (OncoPanel™, Ricerca Biosciences) composed of various cancers such as lung cancer, kidney cancer, liver cancer, pancreatic cancer, large bowel cancer, bladder cancer, breast cancer, head and neck cancer, prostate cancer, skin cancer, blood cancer, and malignant lymphoma.

[5] = 37 human breast cancer cell lines, 3 days drug exposure, FIG. 1

SMILES	Change in sensitivity to drug caused by PIK3C2B gene knockdown [1]	Pearson correlation between logarithm of GI50 and logarithm of expression level of PHLDA1 [2, 5]	Pearson correlation between logarithm of GI50 and logarithm of expression level of PIK3C2B [2, 5]	Change in sensitivity to drug caused by PIK3C2B gene knockdown [3]	Correlation between logarithm of GI50 and logarithm of expression level of PHLDA1 [4]	Correlation between logarithm of GI50 and logarithm of expression level of PIK3C2B [4]	Correlation of PTEN deletion with sensitivity (GI50) ([2]; 36 cell lines, PTEN deletion in 8 cell lines, FIG. 4)
CC(=O)O[C@H]1C(=O)[C@@]2(C)[C@H]([C@H](OC(=O)c3ccccc3)[C@]3(O)C[C@H](OC(=O)[C@H](O)[C@@H](NC(=O)c4ccccc4)c4ccccc4)C(C)=C1C3(C)C)[C@]1(OC(C)=O)CO[C@@H]1C[C@@H]2O [paclitaxel]	almost no change	did not show a correlation	did not show a correlation	almost no change			
CS(=O)(=O)N1CCN(Cc2cc3nc(-c4cccc5[nH]ncc45)nc(N4CCOCC4)c3s2)CC1 [GDC-0941, pictilisib]	decrease in sensitivity			decrease in sensitivity	significant correlation	significant correlation	
CC1(O)CC(N)(c2ccc(-c3nc4n(c3-c3ccccc3)COc3ccncc3-4)cc2)C1 (stereo not drawn) [Compound-I, trans-3-amino-1-methyl-3-(4-(3-phenyl-5H-imidazo[1,2-c]pyrido[3,4-e][1,3]oxazin-2-yl)phenyl)cyclobutanol]	decrease in sensitivity			decrease in sensitivity	significant correlation	significant correlation	did not show a correlation
NC1(c2ccc(-c3nc4ccn5c(=O)[nH]nc5c4cc3-c3ccccc3)cc2)CCC1 [MK-2206]					significant correlation	significant correlation	
Cn1c(=O)n(-c2ccc(C(C)(C)C#N)cc2)c2c3cc(-c4cnc5ccccc5c4)ccc3ncc21 [BEZ235, dactolisib]					significant correlation	significant correlation	
